Laboratory results reported in patent US20040265341A1, “Prevention of uveitis” (Kings College London, priority 2003, published 2004).
Like-named read-outs stand apart in the source and are kept apart here.

Tests used:
uveitis [1] = test: Prevention of experimental uveitis by oral administration in the rat uveitis model; type: in vivo; details: oral administration to experimental animals; conjugate vs peptide alone p<0.0001
PBMC [2] = type: cell-based, human
PBMC [3] = type: cell-based, human; details: for concentration of IFN-γ: relapsed group
uveitis [4] = details: cited from earlier work
[5] = before tolerising regime, 3 patients with relapsing uveitis

QPHDLGKVGEVIVTKD [p336-351]
development of uveitis (uveitis [1]): 65.8%
development of uveitis (animals with uveitis / total) (uveitis [1]): 48/73
stimulation index (SI), individual patients (PBMC [2]; [5]): > 2
stimulation index (SI), mean±sem (PBMC [2]; [5]): 4.1±0.8
stimulation index (SI), mean±sem (PBMC [2]; before tolerising regime, 5 patients in whom uveitis was prevented): 1.25±0.1
stimulation index (SI), mean (PBMC [2]; prevented group, 3 months after tolerising regime started, immunosuppressive drugs tailed off): 2.3±0.6
stimulation index (SI), mean (PBMC [2]; relapsing group, 1-2 months after tolerising regime initiated, immunosuppressive doses decreased): 23.2 (±14.8)
production of IFN-γ (PBMC [3]; patients in whom uveitis was prevented, before and 3 months after immunosuppressive drugs withdrawn): negligible
TNF-α concentrations (PBMC [3]; protected patients): negligible
concentration of IFN-γ (PBMC [3]; 1-2 months after tolerisation initiated, unstimulated 1665±1111 pg/ml): 4723 (±2639) pg/ml
concentration of IFN-γ (PBMC [3]; before tolerisation, unstimulated 504±411 pg/ml): 758 ± 636 pg/mL
TNF-α concentrations (PBMC [3]; relapsing patients, mostly 1-2 months after tolerisation): increased levels
induction of uveitis (uveitis [4]; Lewis rats, subcutaneously with an adjuvant, Uchio et al 1998): uveitis can be induced
induction of uveitis or tolerance (uveitis [4]; oral or nasal administration, Hu et al 1998): induced uveitis instead of tolerance
uveitogenicity when administered to rats (uveitis [4]; rats, Stanford et al 1994): most effective
